According to US10428124B2, “Timothy grass allergens and methods and uses for immune response modulation” (LA JOLLA INSTITUTE FOR ALLERGY AND IMMUNOLOGY, priority 2012, dated 2019):

Legend:
[1] = tested on: PBMCs from TG allergic donors; assay: IFNg ELISPOT of TG extract-expanded PBMCs from TG allergic donors (single peptides); format: cell-based, human; conditions: T cell recognition in TG allergic patients; for Total response IFNg Events: number of response events
[2] = tested on: PBMCs from TG allergic donors; assay: as above; format: cell-based, human; conditions: for Total response IFNg Events: number of positive response events
human IgE = assay: 2D gel immunoblot of TG extract with serum pool from 8 TG-allergic donors, IgE reactivity; format: binding; conditions: for Antibody reactvity IgE/IgG: IgE: E− = not IgE reactive
Description: (§1) 2D DIGE (Difference Gel Electrophoresis) analysis. The complete 2D DIGE analysis was performed by Applied Biomics (Hayward, Calif., US). Briefly, TG extract was run on two 2D gels (3-10 pH range, 12% SDS-acrylamide gel), one was Coomassie blue stained, the other was blotted onto a nitrocellulose membrane. The membrane was then incubated with 5% dried milk in PBS/0.05% Tween to block non-specific binding and subsequently probed with a serum pool from 8 TG-allergic individuals at a dilution of 1:250. IgE and IgG binding was detected using goat anti-human IgE and rabbit anti-human IgG (Sigma-Aldrich, St. Louis, Mo.) and visualized using Cy2-conjugated donkey anti-goat IgG and Cy5-conjugated donkey […] IgG antibodies (Biotium, Hayward, Calif.).
(§2) Mass spectral protein identification was performed by Applied Biomics (Hayward, Calif., US). Briefly, spots of interest were selected from the 2D blot and the corresponding spots were identified on the stained SDS gel and cut out, washed several times to remove staining dye and other inhibitory chemicals. The spots were then dried to absorb maximum digestion buffer. Dried 2D gel spots were rehydrated in digestion buffer containing trypsin. Proteins were digested in-gel at 37° C. and then extracted from the gel with TFA extraction buffer. Subsequently the peptides were desalted using C-18 Zip-tips (Millipore) and mixed with CHCA matrix (alpha-cyano-4-hydroxycinnamic acid) and spotted into wells of a MALDI plate. Mass spectra of the peptides in each sample were obtained using an Applied Biosystems Proteomics Analyzer. The spectra were compared to the amino acid sequences encoded by putative ORFs from the de novo assembled TG pollen transcripts. […] The amino acid sequences encoded by these ORFs were clustered using a custom script at a sequence similarity threshold of 90% to group together highly similar protein sequences. These sequences are encoded by different transcripts from the current assembly, which could arise from splice variants, allelic variation between cells of TG pollen, and from gene families with multiple members. Amino acid sequences that form one cluster are assigned one putative protein ID (Table 1).

human IgG = assay: 2D gel immunoblot of TG extract with serum pool from 8 TG-allergic donors, IgG reactivity; format: binding; conditions: for Antibody reactvity IgE/IgG: IgG: G+ = IgG reactive, G− = not
Description: as §1, §2

[3] = tested on: PBMCs from TG allergic donors; assay: IL-5 ELISPOT of TG extract-expanded PBMCs from TG allergic donors (peptide pools, single peptides, TG extract); format: cell-based, human
Description: Each donor was recruited following Institutional Review Board approval (Federal Wide Assurance number 00000032) and informed consent and assigned a study identification number. Donors were tested for allergen reactivity by skin prick tests to extracts from 32 common allergens. TG allergic donors were identified as having a skin reaction with a wheal of 5 mm in diameter to TG and a clinical history consistent with seasonal grass pollen allergy. Donors that had received specific immunotherapy were excluded. Non-allergic donors were identified as having negative skin prick tests to all allergens and no clinical history of allergy.
PBMCs were isolated by density gradient centrifugation from one unit of blood (˜450 ml) and cryo-preserved as described previously (12). For in vitro expansions, PBMCs were thawed and cultured in RPMI 1640 (Ω Scientific, Tarzana, Calif.) supplemented with 5% human AB serum (Cellgro, Herndon, Va.) at a density of 2×10^6 cells/ml in 24-well plates (BD Biosciences, San Jose, Calif.) and stimulated with TG pollen extract ([…]) (Greer, Lenoir, N.C.). Cells were kept at 37° C., 5% CO2 and additional IL-2 and IL-7 (10 U/ml, eBioscience, San Diego, Calif.) was added every 3 d after initial antigenic stimulation. On day 14, cells were harvested and screened for reactivity against TG-specific peptide pools (16-25 peptides/pool, averaging 20 peptides/pool). On day 17, peptides from positive pools were tested individually to identify the reactive epitopes.
The production of IL-5 from cultured PBMCs in response to antigen stimulation was measured by ELISPOT as described previously (12). Briefly, 1×10^5 cells/well were incubated with peptide, peptide pool or TG extract (10 μg/ml, 5 μg/ml and 50 μg/ml, respectively). After 24 h, cells were removed and plates were incubated with 2 μg/ml biotinylated anti-human IL-5 Ab (Mabtech) at 37° C. After 2 h, plates were washed and avidin-peroxidase-complex was added (Vector Laboratories, Burlingame, Calif.) for 1 h at RT. Peroxidase-conjugated spots were developed with 3-amino-9-ethylcarvazole solution (Sigma-Aldrich, St. Louis, Mo.). Criteria for peptide pool positivity were 100 SFCs/106 PBMCs, p 0.05, and a stimulation index (SI) 2. Criteria for individual peptides were the same except a minimum of 20 SFCs was counted as positive.

[4] = tested on: PBMCs from TG allergic donors; assay: IFNg ELISPOT of TG extract-expanded PBMCs from TG allergic donors (single peptides); format: cell-based, human; conditions: for Total response IFNg Events: number of positive response events in TG allergic patients; for Total response IFNg SFC: TG allergic patients
[5] = tested on: PBMCs from TG allergic donors; assay: IFNg ELISPOT of TG extract-expanded PBMCs (single peptides); format: cell-based, human; conditions: for Total response IFNg Events: number of positive response events to the 15-mer peptide; for Total response IFNg SFC: 15-mer peptide
[6] = tested on: PBMCs from TG allergic donors; assay: IFNg ELISPOT of TG extract-expanded PBMCs from TG allergic donors (single peptides); format: cell-based, human; conditions: T cell recognition in TG allergic patients; for Total response IFNg Events: number of positive events
[7] = E+ / E− part of the cell, reactivity of the parent antigen
[8] = IgE reactivity (E+/E−) of the source antigen of the peptide
[9] = G+ / G− part of the cell, reactivity of the parent antigen
[10] = IgG reactivity (G+/G−) of the source antigen of the peptide
[11] = IL-5, number of positive response events
[12] = T cell recognition in TG allergic patients
[13] = T cell recognition in TG allergic patients, number of response events
[14] = reactivity of the parent antigen (TG protein) from which the peptide is predicted, E+/E−
[15] = reactivity of the parent antigen
[16] = reactivity of the parent antigen (TG protein) from which the peptide is predicted, G+/G−
[17] = number of positive response events in TG allergic patients
[18] = number of positive response events to the 15-mer peptide
[19] = IgE reactivity of the parent TG antigen
[20] = IgG reactivity of the parent TG antigen
[21] = T cell recognition in TG allergic patients, number of positive events

Row | Substance | Total response IFNg Events [2] | Total response IFNg SFC [2] | Antibody reactvity IgE/IgG (IgE part) (human IgE; [7]) | Antibody reactvity IgE/IgG (IgG part) (human IgG; [9]) | Total response IL-5 Events [3, 11] | Antibody reactivity IgE/IgG: IgE (human IgE; [14]) | Total response IFNg Events [4] | Antibody reactivity IgE/IgG: IgG (human IgG; [16]) | Total response IL-5 Events [3, 17] | other results
1 | 252 (SAPALRILRSFPSHS; Phleum pratense) [Peptide 252] | 1 | 143 SFC | E+ | G− | 1 | – | – | – | – | Total response IFNg SFC [1]: 143 SFC; Total response IFNg Events [1]: 1; Antibody reactivity IgE/IgG: IgE (human IgE; [8]): E+; Antibody reactivity IgE/IgG: IgG (human IgG; [10]): G−; Total response IL-5 SFC ([3]; IL-5, total SFC): 97 SFC; Total response IL-5 SFC [3, 12]: 97 SFC; Total response IL-5 Events [3, 13]: 1
2 | 30285 (VFNDDIQGTASVVLA; Phleum pratense) [Peptide 30285] | 0 | – | E+ | G− | 1 | – | – | – | – | Total response IFNg Events [1]: 0; Antibody reactivity IgE/IgG: IgE (human IgE; [8]): E+; Antibody reactivity IgE/IgG: IgG (human IgG; [10]): G−; Total response IL-5 SFC ([3]; IL-5, total SFC): 67 SFC; Total response IL-5 SFC [3, 12]: 67 SFC; Total response IL-5 Events [3, 13]: 1
3 | 6119 (KVSKVLNTYIFLLYL; Phleum pratense) [Peptide 6119] | – | – | – | – | – | E− | 0 | G− | 1 | Antibody reactvity IgE/IgG: IgE (human IgE; [15]): E−; Antibody reactvity IgE/IgG: IgG (human IgG; [15]): G−; Total response IL-5 SFC ([3]; 15-mer peptide): 27 SFC; Total response IL-5 SFC ([3]; TG allergic patients): 27 SFC; Total response IL-5 Events [3, 18]: 1; Total response IFNg Events [5]: 0
4 | 527 (TVSDEYLAAVAKARR; Phleum pratense) [Peptide 527] | 1 | 73 SFC | E+ | G+ | 0 | – | – | – | – | Antibody reactvity IgE/IgG (IgE part) (human IgE; [19]): E+; Total response IFNg SFC [6]: 73 SFC; Total response IFNg Events [6]: 1; Antibody reactvity IgE/IgG (IgG part) (human IgG; [20]): G+; Total response IL-5 Events [3, 21]: 0
5 | 350 (LKDGSTYSFRFSFIV; Phleum pratense) [Peptide 350] | 0 | – | E+ | G+ | 1 | – | – | – | – | Antibody reactvity IgE/IgG (IgE part) (human IgE; [19]): E+; Total response IFNg Events [6]: 0; Antibody reactvity IgE/IgG (IgG part) (human IgG; [20]): G+; Total response IL-5 SFC ([3]; IL-5, total SFC): 20 SFC; Total response IL-5 SFC [3, 12]: 20 SFC; Total response IL-5 Events [3, 21]: 1
6 | 411 (SSTRGWCSRRRAGRG; Phleum pratense) [Peptide 411] | 0 | – | E− | G+ | 0 | E− | 0 | G+ | 0 | –
7 | 375 (EEAASTLPGLSSSTL; Phleum pratense) [Peptide 375] | – | – | – | – | – | – | – | – | – | Total response IFNg Events [1]: 0; Antibody reactivity IgE/IgG: IgE (human IgE; [8]): E−; Antibody reactivity IgE/IgG: IgG (human IgG; [10]): G+; Total response IL-5 Events [3, 13]: 0
8 | 455 (KRPPRCCQDLVVLPL; Phleum pratense) [Peptide 455] | – | – | – | – | – | E− | 0 | G+ | 0 | –
9 | 48269 (YAVGQKIKAYLEAES; Phleum pratense) [Peptide 48269] | 1 | 297 SFC | E− | G+ | 0 | E− | 1 | G+ | 0 | Total response IFNg SFC [4]: 297 SFC
10 | 83 (TIVASGIENMKIFTR; Phleum pratense) [Peptide 83] | 1 | 293 SFC | E+ | G+ | 0 | – | – | – | – | Antibody reactvity IgE/IgG (IgE part) (human IgE; [19]): E+; Total response IFNg SFC [6]: 293 SFC; Total response IFNg Events [6]: 1; Antibody reactvity IgE/IgG (IgG part) (human IgG; [20]): G+; Total response IL-5 Events [3, 21]: 0
11 | 64111 (KNPLKFDNTYFTELL; Phleum pratense) [Peptide 64111] | – | – | – | – | – | E− | 1 | G− | 1 | Antibody reactvity IgE/IgG: IgE (human IgE; [15]): E−; Total response IFNg SFC [4]: 47 SFC; Antibody reactvity IgE/IgG: IgG (human IgG; [15]): G−; Total response IL-5 SFC ([3]; 15-mer peptide): 100 SFC; Total response IL-5 SFC ([3]; TG allergic patients): 100 SFC; Total response IL-5 Events [3, 18]: 1; Total response IFNg SFC [5]: 47 SFC; Total response IFNg Events [5]: 1
12 | 5621 (KIASFLDPDGWKVVL; Phleum pratense) [Peptide 5621] | – | – | – | – | – | E− | 1 | G− | 0 | Antibody reactvity IgE/IgG: IgE (human IgE; [15]): E−; Total response IFNg SFC [4]: 343 SFC; Antibody reactvity IgE/IgG: IgG (human IgG; [15]): G−; Total response IL-5 Events [3, 18]: 0; Total response IFNg SFC [5]: 343 SFC; Total response IFNg Events [5]: 1
13 | 141 (LLGYLLWVVAIRRPR; Phleum pratense) [Peptide 141] | 0 | – | E+ | G+ | 1 | – | – | – | – | Antibody reactvity IgE/IgG (IgE part) (human IgE; [19]): E+; Total response IFNg Events [6]: 0; Antibody reactvity IgE/IgG (IgG part) (human IgG; [20]): G+; Total response IL-5 SFC ([3]; IL-5, total SFC): 110 SFC; Total response IL-5 SFC [3, 12]: 110 SFC; Total response IL-5 Events [3, 21]: 1
14 | 4269 (GVIAGLNVLRIINEP; Phleum pratense) [Peptide 4269] | 1 | 33 SFC | E− | G+ | 0 | E− | 1 | G+ | 0 | Total response IFNg SFC [4]: 33 SFC
